Laboratory results published in patent US7601687B2, “Mechanism for identifying drugs for the treatment of type II diabetes” (BioCrine AB, priority 2006, dated 2009).

Tests used:
βGK mRNA = βGK mRNA steady-state levels (comparative RT-PCR) in cultured pancreatic islets / insulin-producing cells; assay type: cell-based, rat; conditions: 50 mM KCl or 1 μM glibenclamide for 5 min at substimulatory glucose
Description: (§1) Insulin-producing HIT-T15 cells were obtained from ATCC. HIT cells were reported to show glucose responsiveness at subphysiological concentrations between 0.1 and 2 mM (Sharma et al., 1995). HIT cells were grown in RPMI 1640 medium supplemented with 100 units/ml penicillin, 100 μg/ml streptomycin, 2 mM glutamine and 10% fetal calf serum at 5% CO2 and 37° C. Pancreatic islets were isolated from normally fed male Wistar rats and from mice by collagenase digestion. Isolated islets were incubated overnight at 5% CO2 and 37° C. in RPMI 1640 medium, supplemented as described above. Transfection of HIT-T15 and islet cells was performed overnight by the lipofectamine technique in RPMI 1640 medium, without serum and antibiotics. For on-line monitoring, cells were grown and transfected on 24-mm glass coverslips. Following transfection, HIT cells were cultured for 12-18 h in RPMI 1640 medium containing 0.1 mM glucose, 10% fetal calf serum and supplemented as above. Before stimulation, islets and islet cells were incubated for 2 h in RPMI 1640 medium, supplemented as above but containing 3 mM glucose. All expression constructs were prepared using the Qiagen Plasmid Maxi Kit (Qiagen), except those used to produce the adenoviruses which where purified by ultracentrifugation via a CsCI-gradient (as described in Sambrook et al, 1989).
(§2) All experiments were performed in RPMI 1640 medium, supplemented as above. Protein kinase inhibitors, antibodies or nifedipine were added to the culture medium 30 min prior to stimulation and were kept in the medium throughout stimulation. After stimulation islets, islet cells and HIT cells were cultured further at substimulatory glucose concentrations (0.1 mM for HIT cells and 3 mM for islets and islet cells). For RNA-analysis, islets and cells were harvested 60 min after start of stimulation, if not indicated otherwise. For analysis of protein kinase activities or tyrosine phosphorylation, cells were harvested immediately following stimulation.
RNA Analysis Levels of βGK mRNA were analyzed by RNase-protection assays and comparative RT-PCR. […] Quantification of the protected complexes was performed by phosphorimaging. […] Levels of μGK mRNA were analyzed by RT-PCR using primers 5′-[…]-3′(SEQ ID NO: 1) and 5′-[…]-3′(SEQ ID NO: 2) for characterizing μGK mRNA in HIT cells and primers 5′-[…]-3′(SEQ ID NO: 3) and 5′-[…]-3′(SEQ ID NO: 4) for μGK mRNA in rat and mouse pancreatic islets and islet cells. Levels of μ-actin mRNA were analyzed by RT-PCR using primers 5′-[…]-3′(SEQ ID NO: 5) and 5′-[…]-3′(SEQ ID NO: 6). […] PCR products were separated on a 6% polyacrylamide sequencing gel and analyzed by phosphorimaging. […]

rat βGK promoter = assay: On-line monitoring of βGK promoter-driven GFP expression (prβGK.GFP) in transfected HIT-T15 cells, islet cells and islets; assay type: cell-based, hamster (HIT-T15), rat (islet cells); conditions: for βGK promoter-driven GFP expression upon secretagogue stimulation: 50 mM KCl or 1 μM glibenclamide for 5 min at substimulatory glucose; for effect of inhibitor on insulin-stimulated βGK transcription / promoter activity: 5 mU/ml insulin 5 min, 150 nM BIM, 20 μM PD98059, 10 μM PD169316, 100 μM HNMPA-(AM)3, 400 nM AC, FIG. 5; for effect of inhibitor on insulin-stimulated βGK transcription / promoter activity / effect of inhibitor on insulin-stimulated βGK promoter activity (GFP) in the same co-transfected cell: 25 μM LY294002, 10 nM rapamycin; for effect of inhibitor on insulin-stimulated βGK promoter activity (GFP) in the same co-transfected cell: 5 mU/ml insulin, 400 nM AC, 100 μM HNMPA-(AM)3
From the text: Construction of prIns1.GFP has been described earlier (Leibiger et al., 1998a). Vector prIns1.DsRed was generated by exchanging the EGFP-expression cassette versus the DsRed-expression cassette obtained from pDsRed1-1 (Clontech). Plasmid prβGK.GFP (i.e. prβGK-278.GFP) was generated by exchanging the CAT-SV40pA-expression cassette of prβGK-278.CAT (Leibiger et al., 1994a) versus the EGFP-bGHpA-expression cassette obtained from pRcCMVI.GFP (Moede et al., 1999). […] All vector constructions were verified by DNA sequence analysis. […] Expression constructs pCMV5.PKBα, pCMV5.PKBαΔ308/437, pCMV5.PDK1 and pCMV5.PDK1-antisense were kindly provided by Drs. P. Cohen and D. R. Alessi (MRC Phosphorylation Unit, University of Dundee, UK).
as §1, with “HIT” for “Insulin-producing HIT-T15 cells were obtained from ATCC. HIT”
Islets were transduced with Ad.rβGK.GFP or Ad.CMV.GFP by incubating 50 islets with 1 ml virus-containing medium for 90 min at 37° C. and 5% CO2. Following transduction, islets were washed 3 times with PBS and cultured further in RPMI 1640 medium. Islets were stimulated 40-72 h after transduction, as described below and analyzed by laser-scanning confocal microscopy.
as §2
(§3) Detection of fluorescence by digital imaging fluorescence microscopy was performed as described previously (Leibiger et al., 1998a; Leibiger et al., 1998b). Briefly, transfected cells were grown on 24-mm glass coverslips. After stimulation the coverslips were placed into a perifusion chamber which was mounted on an inverted microscope (Zeiss Axiovert 135TV). Temperature was kept at 37° C. and the cells were perfused with RPMI 1640 medium. The objective lens used was a Zeiss-Fluar ×40/1.30 oil Imm Korr. Fluorescence imaging was performed with a cooled charged-coupled device camera (CH250 with KAF 1400, Photometrics, Tucson, Ariz.) connected to an imaging system (Inovision) with fluorescence excitation from a SPEX fluorolog-2 CM1T11I spectrofluorometer (Spex Industries).

[1] = test system: rat insulin-I gene promoter; assay: On-line monitoring of insulin promoter-driven DsRed/GFP expression (prIns1.DsRed) in transfected HIT-T15 cells and islet cells; assay type: cell-based, hamster (HIT-T15), rat (islet cells)
From the text: Construction of prIns1.GFP has been described earlier (Leibiger et al., 1998a). Vector prIns1.DsRed was generated by exchanging the EGFP-expression cassette versus the DsRed-expression cassette obtained from pDsRed1-1 (Clontech). Plasmid prβGK.GFP (i.e. prβGK-278.GFP) was generated by exchanging the CAT-SV40pA-expression cassette of prβGK-278.CAT (Leibiger et al., 1994a) versus the EGFP-bGHpA-expression cassette obtained from pRcCMVI.GFP (Moede et al., 1999). […] All vector constructions were verified by DNA sequence analysis. Constructs for expression of the human Insulin Receptor A and B types, pCMVHIR(A) and pCMVHIR(B) and the control plasmid pCMVstop were kindly provided by Dr. A. Ullrich (Max-Planck-Institute for Biochemistry, Martinsried, Germany). Expression constructs pCMV5.PKBα, pCMV5.PKBαΔ308/437, pCMV5.PDK1 and pCMV5.PDK1-antisense were kindly provided by Drs. P. Cohen and D. R. Alessi (MRC Phosphorylation Unit, University of Dundee, UK).
as §1, §2
as §3, with “Industries). The following filter-settings were used: for GFPs65T: excitation at 485 nm, a 505 nm dicroic mirror and an emission band-pass filter of 500-530 nm; for DsRed: excitation at 558 nm, a 565 nm dicroic mirror and a 580 nm long-pass filter for emission […]” for “Industries).”

[2] = co-transfected HIT cells, 5 mU insulin/ml (FIG. 9A)
[3] = co-transfected HIT cells, 5 mU insulin/ml (FIG. 9B)
[4] = 2.6 nM IGF-I, insulin-producing cells

[Cl-].[K+] [KCI, KCl]
βGK mRNA steady state levels upon secretagogue stimulation (βGK mRNA): increase
βGK promoter-driven GFP expression upon secretagogue stimulation (rat βGK promoter): elevation

O=c1cc(N2CCOCC2)oc2c(-c3ccccc3)cccc12 [LY294002]
effect of inhibitor on insulin-stimulated βGK transcription / promoter activity (rat βGK promoter): not inhibited
effect of inhibitor on insulin-stimulated βGK promoter activity (GFP) in the same co-transfected cell (rat βGK promoter): no effect
concentration necessary to completely abolish insulin-stimulated βGK promoter activity (rat βGK promoter; [2]): 100 µM
concentration that blocked insulin-stimulated insulin promoter activity [1, 2]: 25 µM

COc1cccc(-c2cc(=O)c3ccccc3o2)c1N [PD98059]
effect of inhibitor on insulin-stimulated βGK transcription / promoter activity (rat βGK promoter): not sensitive

CN(C)CCCn1cc(C2=C(c3c[nH]c4ccccc34)C(=O)NC2=O)c2ccccc21 [bisindolylmalemide I]
effect of inhibitor on insulin-stimulated βGK transcription / promoter activity (rat βGK promoter): not sensitive

COc1ccc(Cl)cc1C(=O)NCCc1ccc(S(=O)(=O)NC(=O)NC2CCCCC2)cc1 [glibenclamide]
βGK mRNA steady state levels upon secretagogue stimulation (βGK mRNA): increase
βGK promoter-driven GFP expression upon secretagogue stimulation (rat βGK promoter): elevation

CO[C@H]1C[C@@H]2CC[C@@H](C)[C@@](O)(O2)C(=O)C(=O)N2CCCC[C@H]2C(=O)O[C@H]([C@H](C)C[C@@H]2CC[C@@H](O)[C@H](OC)C2)CC(=O)[C@H](C)/C=C(\C)[C@@H](O)[C@@H](OC)C(=O)[C@H](C)C[C@H](C)/C=C/C=C/C=C/1C [rapamycin]
effect of inhibitor on insulin-stimulated βGK transcription / promoter activity (rat βGK promoter): not inhibited
effect of inhibitor on insulin-stimulated βGK promoter activity (GFP) in the same co-transfected cell (rat βGK promoter): no effect

COC[C@H]1OC(=O)c2coc3c2[C@@]1(C)C1=C(C3=O)[C@@H]2CCC(=O)[C@@]2(C)C[C@H]1OC(C)=O [wortmannin]
concentration necessary to block insulin-stimulated βGK promoter activity (rat βGK promoter; [3]): 150 nM
concentration sufficient to inhibit insulin-stimulated insulin promoter activity [1, 3]: 50 nM

IGF-I
βGK promoter-driven reporter gene expression upon IGF-I stimulation (rat βGK promoter; [4]): did not activate
insulin promoter-driven reporter gene expression upon IGF-I stimulation [1, 4]: did not activate
